{
  "source": "patent US12582625B2",
  "about": "“Methods for treating neuroblastoma” (priority 2015, dated 2026)",
  "origin": "cited, not measured here",
  "key": {"[1]": {"conditions": "in vivo; cited from earlier work"}, "[2]": {"tested_on": "tumors harboring Ki-ras mutations", "conditions": "AOM-treated rats, reduced from 90% (Singh et al., 1994); cited from earlier work"}, "[3]": {"conditions": "cited from earlier work"}, "[4]": {"conditions": "human, in vivo; cited from earlier work"}},
  "data": [
    {"molecule": "Cc1ccc(-c2cc(C(F)(F)F)nn2-c2ccc(S(N)(=O)=O)cc2)cc1", "note": "[celecoxib, 4-[5-(4-Methylphenyl)-3-(trifluoromethyl)pyrazol-1-yl]benzenesulfonamide]", "values": [
      {"measurement": "increase in rates of heart and blood vessel disease", "setting": "[1]", "result": 30, "unit": "%"},
      {"measurement": "risk of gastrointestinal side effects", "setting": "[1]", "result": "greater than 80%"}
    ]},
    {"molecule": "CN1C(C(=O)Nc2ccccn2)=C(O)c2ccccc2S1(=O)=O", "note": "[piroxicam, 4 hydroxy-2-methyl-N-2-pyridyl-2H-1,2-benzothiazine-3-carboxamide 1,1-dioxide]", "values": [
      {"measurement": "tumors harboring Ki-ras mutations", "setting": "[2]", "result": 25, "unit": "%"}
    ]},
    {"molecule": "CC1=C(CC(=O)O)c2cc(F)ccc2/C1=C\\c1ccc([S+](C)[O-])cc1", "note": "(stereo not shown) [sulindac, (Z)-5-fluoro-2-methyl-1-((4-(methylsulfinyl)phenyl)methylene)-1H-chemical indene-3-acetic acid]", "values": [
      {"measurement": "drug absorbed", "setting": "[3]; after oral administration", "result": "about 90%"},
      {"measurement": "time to peak plasma levels", "setting": "[3]; fasting patients", "result": "about 2 hours"},
      {"measurement": "patients with mild gastrointestinal effects", "setting": "[4]", "result": "~20", "unit": "%"},
      {"measurement": "patients with skin rash and pruritus", "setting": "[4]", "result": 5, "unit": "%"}
    ]}
  ]
}
